Data set [1] can be described thus: Saturation solubility of tacrolimus in different solvents. Format: physicochemical. As to conditions: for solubility: thermodynamic from solid, room temperature. As for the experimental part:
Tacrolimus was dissolved in an organic solvent. Particularly, the saturation solubility of tacrolimus in different organic solvents was tested. Crystalline active ingredient was added to a defined amount of solvent at room temperature while stirring until an insoluble sediment was formed. After filtration, the concentration of active ingredient was quantified by HPLC in the supernatant.

The conditions of data set [2]: low solubility and high permeability; cited from earlier work.

Converted amounts (≈) assume the structure as drawn.

As to `C=CC[C@@H]1/C=C(\C)C[C@H](C)C[C@H](OC)[C@H]2O[C@@](O)(C(=O)C(=O)N3CCCC[C@H]3C(=O)O[C@H](/C(C)=C/[C@@H]3CC[C@@H](O)[C@H](OC)C3)[C@H](C)[C@@H](O)CC1=O)[C@H](C)C[C@@H]2OC` [Tacrolimus], the “Solubility in tested organic solvents” value in data set [1] was “soluble in all tested organic solvents”. For the same compound, the solubility in data set [1] (organic solvent or mixture, Acetic Acid) is 545 mg/mL (≈ 678 mM); in data set [1] (organic solvent or mixture, DMSO), 582 mg/mL (≈ 724 mM); in data set [1] (organic solvent or mixture, Ethanol) it was 389 mg/mL (≈ 484 mM); in data set [1] (organic solvent or mixture, iso-Propanol), 243 mg/mL (≈ 302 mM); in data set [1] (Water), 0.00076 mg/mL (≈ 0.000945 mM). For the same compound, the BCS class result in data set [2] was “BCS class II”.
